This note sets out measurements from article PMC12136037, “Type II kinase inhibitors that target Parkinson’s disease–associated LRRK2” (Science Advances, 2025).

Molecules are shown by their SMILES. Several values for one entry are separate records, joined by “and”; a condition that tells them apart may be missing. Equal values may be shown once. Entries after “also recorded” stand apart in the source; their conditions may differ.

One assay has as its target LRRK1 (Homo sapiens, UniProt Q38SD2). Kind of assay: Western blot of Rab7 phosphorylation (pS72) in 293T cells transfected with LRRK1 and GFP-Rab7. The class given is cell-based. Particulars: for pRab7/Rab7/LRRK1 normalized to DMSO, Mean / pRab7/Rab7/LRRK1 normalized to DMSO: 4 h; for pRab7/Rab7/LRRK1 normalized to DMSO, Mean: 3 replicates; for pRab7/Rab7/LRRK1 normalized to DMSO: individual Western blots; for inhibition of LRRK1 kinase activity in cells: 293T cells, Rab7 phosphorylation. The method, then: (§1) For all in cell kinase assays, after 48 hours, transfected cells were treated with either DMSO (control) or the indicated inhibitors for 4 hours at 37°C and 5% CO2. Following treatments, cells were washed three times with ice cold PBS. Cells were then lysed in ice cold radioimmunoprecipitation assay (RIPA) lysis buffer [50 mM tris (pH 8.0), 150 mM NaCl, 1% Triton X-100, 0.1% SDS, 0.5% sodium deoxycholate, and 1 mM DTT] in the presence of complete mini EASYpack protease inhibitor cocktail and the PhosSTOP EASYpack phosphatase inhibitor cocktail (Roche). Resuspended and lysed cells were clarified by centrifugation at 13,000g for 15 min at 4°C. NuPAGE LDS Sample Buffer (1×) and NuPAGE Sample Reducing Agent (1×; Invitrogen) were added to the clarified supernatants, and the samples were boiled at 95°C for 5 min and spun down at 13,000g for 10 min. For Western blotting, 15 μl of sample was loaded into a NuPAGE 4 to 12% gradient bis-tris gel (Invitrogen) and run at 120 V for 75 min before transfer to polyvinylidene difluoride transfer membrane (0.45-μm pore size, Millipore) for 240 min at 80 V at 4°C. The membrane was blocked in 5% milk in 1× Tris-buffered saline (TBS) [20 mM tris (pH 8.0) and 150 mM NaCl] for 1 hour shaking at room temperature. Primary antibodies [monoclonal rabbit anti-LRRK2 (Abcam, ab133474; RRID: AB_2713963), polyclonal rabbit anti-LRRK1 (Abcam, ab228666), monoclonal rabbit anti-LRRK2 phospho-S935 (Abcam, ab133450; RRID: AB_2732035), monoclonal rabbit anti-Rab8a phospho-T72 (Abcam, ab230260; RRID: AB_2814988), monoclonal rabbit anti-Rab7 phospho-S72 (Abcam, ab302494; RRID: AB_2933985), monoclonal rabbit anti–glyceraldehyde-3-phosphate dehydrogenase (GAPDH; Cell Signalling Technology, 2118; RRID: AB_561053), and monoclonal mouse anti-GFP (Santa Cruz Biotechnology, sc-9996; RRID: AB_627695)] were diluted in 5% milk in TBS and incubated with membrane for 16 hours at 4°C. Following incubation, membranes were washed three times with 1× TBS-T [20 mM tris (pH 8.0), 150 mM NaCl, and 0.1% Tween 20] before incubation with IRDye 680RD goat anti-rabbit IgG (LI-COR, 926-68071; RRID: AB_10956166) and IRDye 800CW goat anti-mouse IgG (LI-COR, 926-32210; RRID: AB_621842) secondary antibodies in 5% milk in 1× TBS for 1 hour at room temperature. Membranes were then washed three times in 1× TBS-T before imaging on Li-COR Odyssey CLx controlled by Imaging Studio software (www.licorbio.com/image-studio, RRID:SCR_015795). Image processing and quantification were performed in ImageJ version 2.14.0 (National Institutes of Health; https://imagej.net/, RRID:SCR_003070). The signal intensity of each band was assessed using the Analyze>Gels tool. The band intensity for phosphorylated LRRK2 was measured and compared to total LRRK2 levels (run under identical conditions on a separate gel). Band intensity for phosphorylated Rab7 or Rab8a was measured and compared against total GFP-Rab7 or GFP-Rab8a (using anti-GFP antibody) and LRRK1/LRRK2 levels as appropriate. Comparative statistical analysis of phosphorylation levels was analyzed using a one-way analysis of variance (ANOVA) and corrected using Tukey’s multiple comparisons test in GraphPad Prism 10 (www.graphpad.com/, RRID:SCR_002798). (For current step-by-step protocol for LRRK transfection and Western blotting, see dx.doi.org/10.17504/protocols.io.kxygx9bozg8j/v1.)
Background: A western blot detects proteins with antibodies after separation by electrophoresis.

Assay [1] concerns LRRK2 S935 phosphorylation. Kind of assay: Western blot of LRRK2 biomarker site pS935 in transfected 293T cells. It is filed as cell-based, human. Particulars: for pS935 LRRK2/LRRK2 normalized to DMSO, Mean / pS935 LRRK2/LRRK2 normalized to DMSO: 4 h; for pS935 LRRK2/LRRK2 normalized to DMSO, Mean: 3 replicates; for pS935 LRRK2/LRRK2 normalized to DMSO: individual Western blots; for effect on phosphorylation of LRRK2 S935: 293T cells, MLi-2 500 nM. As for the experimental part:
as §1

LRRK1, sequence (Q38SD2 whole entry): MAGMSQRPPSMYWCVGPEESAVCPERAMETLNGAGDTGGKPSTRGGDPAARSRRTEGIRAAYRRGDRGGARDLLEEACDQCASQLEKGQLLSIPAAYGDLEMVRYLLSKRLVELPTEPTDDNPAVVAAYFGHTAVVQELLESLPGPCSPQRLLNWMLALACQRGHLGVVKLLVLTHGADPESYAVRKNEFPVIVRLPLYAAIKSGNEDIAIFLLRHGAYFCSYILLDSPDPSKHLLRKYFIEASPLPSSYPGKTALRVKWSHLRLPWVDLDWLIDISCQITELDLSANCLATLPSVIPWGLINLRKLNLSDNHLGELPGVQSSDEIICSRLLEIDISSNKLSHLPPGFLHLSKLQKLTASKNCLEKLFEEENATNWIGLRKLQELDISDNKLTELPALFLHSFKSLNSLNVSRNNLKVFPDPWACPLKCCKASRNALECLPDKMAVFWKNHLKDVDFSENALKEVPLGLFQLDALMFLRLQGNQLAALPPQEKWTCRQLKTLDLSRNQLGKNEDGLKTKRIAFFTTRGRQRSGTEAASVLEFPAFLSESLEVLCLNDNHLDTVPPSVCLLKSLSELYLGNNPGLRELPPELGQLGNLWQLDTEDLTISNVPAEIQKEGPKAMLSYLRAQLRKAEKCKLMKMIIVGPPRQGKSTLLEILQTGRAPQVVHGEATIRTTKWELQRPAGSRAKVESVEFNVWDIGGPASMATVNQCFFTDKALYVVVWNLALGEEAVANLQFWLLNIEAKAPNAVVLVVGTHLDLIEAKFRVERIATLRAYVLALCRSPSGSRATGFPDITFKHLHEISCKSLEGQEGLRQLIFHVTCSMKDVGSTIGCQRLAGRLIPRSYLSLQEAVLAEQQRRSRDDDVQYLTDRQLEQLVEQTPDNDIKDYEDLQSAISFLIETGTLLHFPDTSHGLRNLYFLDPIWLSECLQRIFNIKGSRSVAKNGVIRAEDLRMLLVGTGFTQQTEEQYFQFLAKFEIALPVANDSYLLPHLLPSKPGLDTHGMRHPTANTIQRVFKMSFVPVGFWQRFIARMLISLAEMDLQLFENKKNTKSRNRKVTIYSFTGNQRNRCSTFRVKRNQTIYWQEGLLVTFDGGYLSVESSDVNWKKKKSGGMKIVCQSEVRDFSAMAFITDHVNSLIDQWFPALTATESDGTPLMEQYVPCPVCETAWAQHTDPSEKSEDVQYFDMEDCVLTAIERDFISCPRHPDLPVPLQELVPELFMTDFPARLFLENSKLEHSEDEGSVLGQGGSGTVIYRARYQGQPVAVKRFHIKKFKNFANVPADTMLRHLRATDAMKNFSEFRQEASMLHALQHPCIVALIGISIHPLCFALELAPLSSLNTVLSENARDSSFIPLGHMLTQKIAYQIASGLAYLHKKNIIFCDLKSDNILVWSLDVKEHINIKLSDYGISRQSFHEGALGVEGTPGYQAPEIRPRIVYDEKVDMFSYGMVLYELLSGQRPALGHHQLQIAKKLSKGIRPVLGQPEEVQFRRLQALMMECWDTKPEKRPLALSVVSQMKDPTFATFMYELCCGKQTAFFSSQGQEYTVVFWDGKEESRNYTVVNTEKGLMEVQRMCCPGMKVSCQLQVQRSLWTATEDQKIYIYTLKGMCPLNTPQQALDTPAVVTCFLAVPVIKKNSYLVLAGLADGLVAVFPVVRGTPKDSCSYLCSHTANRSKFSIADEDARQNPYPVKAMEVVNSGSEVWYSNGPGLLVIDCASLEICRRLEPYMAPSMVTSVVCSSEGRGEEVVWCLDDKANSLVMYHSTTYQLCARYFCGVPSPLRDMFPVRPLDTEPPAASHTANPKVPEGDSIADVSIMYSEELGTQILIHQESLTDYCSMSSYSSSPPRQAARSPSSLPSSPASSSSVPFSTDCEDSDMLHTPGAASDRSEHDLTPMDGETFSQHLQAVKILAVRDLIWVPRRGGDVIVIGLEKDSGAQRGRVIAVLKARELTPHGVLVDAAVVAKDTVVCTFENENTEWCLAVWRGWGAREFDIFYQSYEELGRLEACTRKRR

Regarding `Cc1ccc(-n2nc(C(C)(C)C)cc2NC(=O)Nc2cccc(-c3c[nH]c4nc(Cl)nc(N5CCOCC5)c34)c2)cc1` [Compound 30], the “pRab7/Rab7/LRRK1 normalized to DMSO, Mean” value came to 0.2801 at LRRK1 (250 nM), 0.132 on LRRK1 (500 nM), 0.07421 on LRRK1 (1 μM) and 0.02826 at LRRK1 (5 μM). Besides, the “pRab7/Rab7/LRRK1 normalized to DMSO” value on LRRK1 (250 nM, listed as RN277) was 0.1952 and 0.2204 and 0.4248; on LRRK1 (500 nM, listed as RN277), 0.134 and 0.06831 and 0.1937; at LRRK1 (1 µM, listed as RN277), 0.05675 and 0.07868 and 0.08722; at LRRK1 (5 µM, listed as RN277), 0.01168 and 0.03108 and 0.04201. Moreover, the “inhibition of LRRK1 kinase activity in cells” value on LRRK1 (listed as RN277) is on record as “strong inhibitory effect; also recorded: potently inhibited LRRK1 in cells”. Further, the “pS935 LRRK2/LRRK2 normalized to DMSO, Mean” value in assay [1] (250 nM) was 0.9168; in assay [1] (500 nM) it was 0.8971; in assay [1] (1 μM), 0.8756; in assay [1] (5 μM) it was 0.9338; in assay [1] (10 μM), 0.9235. Also, the “pS935 LRRK2/LRRK2 normalized to DMSO” value was 0.9442 and 0.8289 and 0.9773 in assay [1] (250 nM, listed as 277); 0.9489 and 0.8102 and 0.9321 in assay [1] (500 nM, listed as 277); 1.005 and 0.7529 and 0.869 in assay [1] (1 μM, listed as 277); 0.9369 and 0.9197 and 0.9447 in assay [1] (5 μM, listed as 277); 0.9197 and 0.9052 and 0.9455 in assay [1] (10 μM, listed as 277). In addition, the “effect on phosphorylation of LRRK2 S935” value in assay [1] was “none of the tested type II inhibitors (broad-spectrum kinase inhibitor Ponatinib or our top compounds RN277 and RN341) reduced the phosphorylation level at this site”.

Consider `Cc1ccc(C(=O)Nc2ccc(CN3CCN(C)CC3)c(C(F)(F)F)c2)cc1C#Cc1cnc2cccnn12` [Ponatinib, reference compound], for which, in assay [1] (5 μM), the “pS935 LRRK2/LRRK2 normalized to DMSO, Mean” value came out at 0.91; the “pS935 LRRK2/LRRK2 normalized to DMSO” value was 0.7959 and 0.8749 and 1.059. Further, the “effect on phosphorylation of LRRK2 S935” value in assay [1] was “none of the tested type II inhibitors (broad-spectrum kinase inhibitor Ponatinib or our top compounds RN277 and RN341) reduced the phosphorylation level at this site”.

As to `CCSc1nc(NC)c2c(-c3cccc(NC(=O)Nc4cc(C(C)(C)C)nn4-c4ccc(C)cc4)c3)c[nH]c2n1` [Compound 32], the “pRab7/Rab7/LRRK1 normalized to DMSO, Mean” value on LRRK1 (250 nM) was found to be 0.1265; on LRRK1 (500 nM), 0.07673; on LRRK1 (1 μM), 0.0594; at LRRK1 (5 μM), 0.03197. The “pRab7/Rab7/LRRK1 normalized to DMSO” value on LRRK1 (250 nM, listed as RN341) is 0.09263 and 0.098 and 0.1889; at LRRK1 (500 nM, listed as RN341), 0.0375 and 0.09153 and 0.1011; on LRRK1 (1 µM, listed as RN341) it was 0.03839 and 0.04963 and 0.09017; at LRRK1 (5 µM, listed as RN341), 0.0003413 and 0.05428 and 0.04127. Also, the “inhibition of LRRK1 kinase activity in cells” value at LRRK1 (listed as RN341) is listed as “strong inhibitory effect; also recorded: potently inhibited LRRK1 in cells”. The “pS935 LRRK2/LRRK2 normalized to DMSO, Mean” value in assay [1] (250 nM) is given as 0.9603; in assay [1] (500 nM) it was 0.9221; in assay [1] (1 μM), 0.8783; in assay [1] (5 μM), 0.8974; in assay [1] (10 μM), 0.9517. For the same compound, the “pS935 LRRK2/LRRK2 normalized to DMSO” value in assay [1] (250 nM, listed as 341) is 0.9872 and 0.9193 and 0.9743; in assay [1] (500 nM, listed as 341), 0.9409 and 0.8795 and 0.9459; in assay [1] (1 μM, listed as 341), 0.9145 and 0.9018 and 0.8186; in assay [1] (5 μM, listed as 341), 0.9195 and 0.9472 and 0.8255; in assay [1] (10 μM, listed as 341), 0.9588 and 0.9056 and 0.9906. The “effect on phosphorylation of LRRK2 S935” value in assay [1] was “none of the tested type II inhibitors (broad-spectrum kinase inhibitor Ponatinib or our top compounds RN277 and RN341) reduced the phosphorylation level at this site”.
